From publication PMC8365602 (Journal of Medicinal Chemistry, 2021) come the findings set out here.

The structures appear in SMILES notation. Where two headings read alike, the source gives them in different places.

In series [1] the test system is human macrophages (M1 subtype). Put plainly: Lipid mediator profile of M1 macrophages stimulated with pathogenic E. coli. To be noted: 1 μM. It is filed as cell-based. The procedure: Macrophages were polarized to the M1 phenotype by stimulation with LPS (100 ng/mL, Sigma-Aldrich) and interferon (IFN)-γ (20 ng/mL, Peprotech, Hamburg, Germany) for 48 h.[23]
Monocytes (1 × 10^6/mL), which were prestimulated with LPS (1 μg/mL) for 24 h to induce COX-2 expression, or M1 macrophages (2 × 10^6 cells/mL) were preincubated with the vehicle (0.1% DMSO), 27a, or 12a for 15 min. Arachidonic acid (20 μM) and A23187 (2.5 μM) were added to monocytes suspended in a monocyte medium (lacking FCS if indicated) to induce lipid mediator formation.[81]
Fatty acids and lipid mediators were extracted from macrophage supernatants or murine peritoneal exudates (1 mL) after addition of two aliquots of ice-cold methanol.[23]d8-5S-HETE, d4-LTB4, d5-lipoxin A4, d5-resolvin D2, d4-PGE2 (200 nM, each, Cayman Chemicals), and d8-arachidonic acid (10 μM, Cayman Chemicals) were added as internal standards. […] The columns were extensively washed with H2O and hexane before lipid mediators were eluted with methyl formate, evaporated to dryness, dissolved in methanol/H2O (50:50), and analyzed by UPLC-MS/MS.[23]
To quantify lipid mediators and fatty acids in macrophages, murine plasma, and murine peritoneal exudates, the mobile phase methanol/H2O (acidified with 0.01% acetic acid) was ramped from 42:58 to 86:14 over 12.5 min, followed by isocratic elution with methanol/H2O (98:2) for 3 min. […]

For a further series, the target named is T1, 5-LOX (Homo sapiens, UniProt P09917).
T1 sequence (P09917 1-674): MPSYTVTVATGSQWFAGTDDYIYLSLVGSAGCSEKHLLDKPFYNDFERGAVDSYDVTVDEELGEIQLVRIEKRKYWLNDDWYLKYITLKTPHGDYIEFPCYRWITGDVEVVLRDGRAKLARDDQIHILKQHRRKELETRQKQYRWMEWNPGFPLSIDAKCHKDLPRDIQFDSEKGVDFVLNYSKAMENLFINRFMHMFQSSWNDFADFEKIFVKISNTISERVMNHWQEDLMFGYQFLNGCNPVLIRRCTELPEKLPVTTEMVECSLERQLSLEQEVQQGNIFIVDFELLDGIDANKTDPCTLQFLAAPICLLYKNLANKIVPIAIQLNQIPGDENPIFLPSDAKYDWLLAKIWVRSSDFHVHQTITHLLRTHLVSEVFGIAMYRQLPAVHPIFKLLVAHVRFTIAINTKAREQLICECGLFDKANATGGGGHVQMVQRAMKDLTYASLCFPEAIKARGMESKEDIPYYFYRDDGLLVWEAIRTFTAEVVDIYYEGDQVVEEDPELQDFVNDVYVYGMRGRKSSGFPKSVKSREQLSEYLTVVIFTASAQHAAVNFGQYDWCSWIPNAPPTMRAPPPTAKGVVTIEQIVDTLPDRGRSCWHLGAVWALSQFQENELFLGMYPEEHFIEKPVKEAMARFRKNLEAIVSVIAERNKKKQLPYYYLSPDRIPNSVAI
Put plainly: 5-LOX product formation in activated PMNL.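 Also: freshly isolated human PMNL in PBS pH 7.4 plus glucose, preincubated 10 min at 37 °C with compound, 5-LOX products (all-trans LTB4 isomers, 5-HETE) quantified by RP-HPLC.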

Another series has as its target T2, human recombinant COX-2 (Homo sapiens, UniProt P35354).
T2 construct: purchased Cayman Chemicals
The series is described as follows: COX-2 activity. The class given is biochemical. The procedure: Purified ovine COX-1 (Cayman Chemicals; 50 units) or human recombinant COX-2 (Cayman Chemicals; 20 units) was dissolved in 100 mM Tris buffer pH 8, 5 mM glutathione, 5 μM hemoglobin, and 100 μM EDTA. COX isoenzymes were preincubated with the vehicle (DMSO) or 27a for 5 min at 4 °C and 1 min at 37 °C. Addition of arachidonic acid (COX-1: 5 μM; COX-2: 2 μM) initiated the formation of COX-derived 12(S)-hydroxy-5-cis-8,10-trans-heptadecatrienoic acid (12-HHT), which was extracted and analyzed by RP-HPLC according to 5-LOX products.

Series [2] is described as follows: Concentrations and metabolism of compound in mice with zymosan-induced peritonitis. It is filed as in vivo. The procedure:
LCMs, 27a, and 27a metabolites were extracted from PMNL, medium of the liver-on-chip, murine plasma, peritoneal exudate, or homogenized murine tissue as described.[6] In brief, PBS pH 7.4, methanol, chloroform, and saline (final ratio: 14:34:35:17) were successively added together with 13d (9 pmol) as the internal standard. The organic layer was evaporated, and the extracted LCMs were dissolved in methanol.
LCMs, 27a, and 27a metabolites were separated at a flow rate of 0.8 mL/min and a column temperature of 45 °C, with acetonitrile/H2O (10:90) as mobile phase A and acetonitrile as mobile phase B, both acidified with 0.07% formic acid. The linear gradient from A/B = 50:50 to 0:100 within 4.5 min was followed by isocratic elution with A/B = 0:100 for 1 min. MS parameters were adjusted according to Pein et al.[6] and as detailed in Table S3. Signal intensities were normalized to the internal standard 13d, and concentrations were calculated using external calibration curves as specified in Table S3.
Zymosan (2 mg/mL in saline, i.p., 0.5 mL, Sigma-Aldrich) was injected at 30 min (i.p.) or 60 min (p.o.) post compound administration. Mice were sacrificed by inhalation of CO2 after another 30 min to determine LTC4 levels, lipid mediator profiles, metabolites, and vascular permeability and after 4 h to analyze LTB4 levels and cell infiltration.[72] Plasma and peritoneal exudates were collected, and cells were counted in exudates after trypan blue staining. Vascular permeability was measured by injection of Evans blue dye (40 mg/kg in saline, 0.3 mL, Sigma-Aldrich) into the tail vain directly before peritonitis induction.[72] The exudate was centrifuged (3000g, 5 min), and the absorbance was measured at 610 nm (DU730 spectrophotometer, Beckman Coulter, Krefeld, Germany). Levels of LTB4 and cysteinyl-LTs (dominated by LTC4) were quantified in the exudate by ELISA (Enzo Life Sciences, Lörrach, Germany) according to the manufacturer’s instructions. Compound 27a, its metabolites, and lipid mediators were extracted and analyzed by UPLC-MS/MS.

T2 sequence (P35354 18-604): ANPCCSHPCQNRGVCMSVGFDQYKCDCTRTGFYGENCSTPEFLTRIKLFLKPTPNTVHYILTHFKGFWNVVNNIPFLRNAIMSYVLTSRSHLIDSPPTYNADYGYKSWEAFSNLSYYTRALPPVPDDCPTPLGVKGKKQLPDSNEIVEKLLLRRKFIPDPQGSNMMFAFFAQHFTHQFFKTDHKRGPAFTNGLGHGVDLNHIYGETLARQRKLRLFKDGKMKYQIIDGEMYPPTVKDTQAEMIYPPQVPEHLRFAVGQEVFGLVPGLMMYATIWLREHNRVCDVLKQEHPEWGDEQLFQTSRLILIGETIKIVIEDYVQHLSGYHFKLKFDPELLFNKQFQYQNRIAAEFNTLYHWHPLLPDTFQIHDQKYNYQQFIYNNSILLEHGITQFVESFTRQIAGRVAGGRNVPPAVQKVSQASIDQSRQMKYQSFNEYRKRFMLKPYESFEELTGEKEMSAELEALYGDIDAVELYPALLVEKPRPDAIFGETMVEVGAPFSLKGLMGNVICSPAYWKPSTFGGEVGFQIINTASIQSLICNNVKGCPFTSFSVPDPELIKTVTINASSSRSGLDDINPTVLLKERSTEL

In the case of `C/C(=C\CC/C(C)=C/CC[C@]1(C)CCc2c(C)c(O)c(C)c(C)c2O1)CCC=C(CO)CO` [Compound 27a, α-amplexichromanol], in series [1], the “Biosynthesis of 5-LOX-derived products in M1 macrophages” value is listed as “preferentially suppressed the biosynthesis of 5-LOX-derived products” and the “PGE2 levels in M1 macrophages” value is given as “slightly increased”. Moreover, the remaining activity at 3 µM on 5-LOX (PMNL, read-out: 5-LOX PMNL residual activity at 3 μM) is 0.5 ± 0.1%. In addition, the IC50 on 5-LOX (read-out: 5-LOX PMNL IC50, 5-LOX product formation in activated PMNL, mean ± SEM) came out at 40 ± 10 nM. The half-maximal inhibitory concentration (IC50) on 5-LOX (read-out: IC50, 5-LOX product formation in PMNL, A23187) was 50 nM. For the same compound, the COX-2 inhibition entry on human recombinant COX-2 is reported as “not substantially inhibited”. This compound also had a concentration at 90 min in series [2] (CD-1, mouse, plasma, po, mice with acute peritonitis, 10 mg/kg p.o., 90 min post administration) of 30 to 900 nM. In addition, in series [2] (mice, 10 mg/kg p.o., plasma), the “Side-chain degradation in mice” value is on record as “resistant to degradation”. In addition, the “Time to uptake after oral administration” value in series [2] (mice, p.o.) was ≤ 1 h. The “Concentrations in the peritoneal exudate” value in series [2] (mice, peritonitis, oral administration 30 mg/kg) lay within 0.5 to 4 nM.

In general, IC50 refers to the concentration that inhibits the measured activity by half.
